According to PubChem BioAssay (NCI):
Where “and” joins values, the source holds several entries; their conditions need not be identical. Equal values may be shown once.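 These data come from cells grown in 96-well plates and exposed to compound for 48 hours at five concentrations. GI50 marks 50% less growth. TGI: concentration producing complete growth inhibition.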

Legend:
Experiment in all cases: NCI anticancer screen, dose series, 48 h
SNB-75 CNS = system: SNB-75 CNS
SK-MEL-28 melanoma = system: SK-MEL-28 melanoma
OVCAR-3 ovarian = system: OVCAR-3 ovarian
DU-145 prostate = system: DU-145 prostate
NCI-H460 lung = system: NCI-H460 lung
CCRF-CEM leukemia = system: CCRF-CEM leukemia
SW-620 colon = system: SW-620 colon
NCI-H23 lung = system: NCI-H23 lung
HOP-62 NSCLC = system: HOP-62 NSCLC
SNB-19 CNS = system: SNB-19 CNS

SMILES	GI50 (SNB-75 CNS)	TGI (SNB-75 CNS)	GI50 (SK-MEL-28 melanoma)	TGI (SK-MEL-28 melanoma)	GI50 (OVCAR-3 ovarian)	TGI (OVCAR-3 ovarian)	GI50 (DU-145 prostate)	TGI (DU-145 prostate)	GI50 (NCI-H460 lung)	TGI (NCI-H460 lung)	GI50 (CCRF-CEM leukemia)	TGI (CCRF-CEM leukemia)	GI50 (SW-620 colon)	TGI (SW-620 colon)	GI50 (NCI-H23 lung)	TGI (NCI-H23 lung)	GI50 (HOP-62 NSCLC)	TGI (HOP-62 NSCLC)	GI50 (SNB-19 CNS)	TGI (SNB-19 CNS)
Cc1cc(Nc2cc(N3CCN(C)CC3)nc(C#Cc3ccccc3)n2)n[nH]1	0.725 µM	2.91 µM	5.05 µM	18.3 µM	4.46 µM	17.8 µM	4.18 µM	18.2 µM	2.07 µM	13 µM	6.89 µM	> 69.5 µM	2.72 µM	14.4 µM	3.25 µM	18.5 µM	3.19 µM	13.9 µM	5.59 µM	19.5 µM
Oc1cccc(-c2nc(N3CCOCC3)c3oc4ncccc4c3n2)c1	0.0401 µM and < 0.0151 µM	0.311 µM and 0.114 µM	0.152 µM and 0.0882 µM	2.22 µM	0.164 µM and 0.213 µM	0.811 µM and 3.24 µM	0.188 µM and 0.161 µM	> 100 µM	0.359 µM and 0.419 µM	> 100 µM	0.517 µM and 0.461 µM	> 100 µM	0.344 µM and 0.353 µM	> 100 µM	0.269 µM and 0.292 µM	> 100 µM and 31.4 µM	0.234 µM and 0.227 µM	3.7 µM and 5.53 µM	0.358 µM and 0.247 µM	7.43 µM and 6.83 µM
O=C1c2c(O)ccc(O)c2C(=O)c2c(NCCNCCO)ccc(NCCNCCO)c21		0.122 µM and 0.541 µM and 0.218 µM		1.66 µM and 1.03 µM and 2.31 µM	0.483 µM	1.87 µM and 1.47 µM and 2.13 µM		0.0832 µM and 0.465 µM and 0.31 µM		0.274 µM and 0.332 µM and 0.484 µM	0.0139 µM			1.91 µM and 1.62 µM and 1.77 µM				0.122 µM and 0.0851 µM and 0.204 µM		0.546 µM and 2.08 µM and 0.79 µM
C=C[C@@]1(C)CC(=O)[C@]2(O)[C@@]3(C)[C@@H](O)CCC(C)(C)[C@@H]3[C@H](O)[C@@H](OC(C)=O)[C@@]2(C)O1		> 100 µM		> 100 µM		> 100 µM		> 100 µM		> 100 µM		> 100 µM		> 100 µM		> 100 µM		> 100 µM		> 100 µM
Cc1cc(C)c2nccc(NCCCN(C)C)c2c1[N+](=O)[O-]		> 100 µM		37 µM		> 100 µM		> 100 µM		> 100 µM		> 100 µM		> 100 µM		37.2 µM		> 100 µM		> 100 µM
COc1ccc(-c2nn3ncccc3c2-c2ccnc(Nc3cccc(C(F)(F)F)c3)n2)cc1	> 16.3 µM	> 25 µM	16.7 µM	> 25 µM	8.36 µM	> 25 µM	12.1 µM	> 25 µM	7.62 µM	> 25 µM	6.73 µM	> 25 µM	10.8 µM	> 25 µM	7.99 µM	> 25 µM	16.8 µM	> 25 µM	12.5 µM	> 25 µM
COC(=O)C1=C(C(=O)OC)C(C(=O)OC)C(C(=O)OC)C(C(=O)OC)(C(=O)OC)C(C(=O)OC)=C1C(=O)OC (stereo not given)		34.5 µM		29.3 µM		28.9 µM		32.1 µM		37.4 µM		8.72 µM		16.8 µM		35.8 µM		58.1 µM		33 µM
COC12C=C/C(=C(/C(=O)OCc3csc(SC)n3)C(=O)CCCCCCCCC3(OC)C=C/C(=C(/C(=O)OCc4cnc(SC)s4)C(=O)CCCCCCCC1)O3)O2 (stereo not given)	7.61 µM	28.9 µM	0.955 µM	> 100 µM	2.74 µM	> 100 µM	5.39 µM	> 100 µM	4.57 µM	> 100 µM	0.455 µM	> 100 µM	3.66 µM	> 100 µM	2.5 µM	> 100 µM	4.48 µM	70.6 µM	8.6 µM	> 100 µM
CCOC(=O)C(=Cc1c(-c2ccccc2)[nH]c2ccccc12)C(=O)OCC	6.55 µM	28.4 µM	7.4 µM	21.6 µM	4.21 µM	22.6 µM	9.69 µM	28.4 µM	3.75 µM	13.6 µM	2.58 µM	9.75 µM	5.57 µM	22.1 µM	2.56 µM	11.7 µM	4.27 µM	14.1 µM	21.6 µM	> 64.3 µM
COc1ccc2c(c1)c(-c1cc(-c3cn(C)c4ccc(OC)cc34)[nH]n1)cn2C	> 100 µM	> 100 µM	> 100 µM	> 100 µM	> 100 µM	> 100 µM	> 100 µM	> 100 µM	> 100 µM	> 100 µM	> 100 µM	> 100 µM	> 100 µM	> 100 µM	> 100 µM	> 100 µM	> 100 µM	> 100 µM	> 100 µM	> 100 µM
